Experimental data: patent US9765056B2, “Indole and pyrrole compounds, a process for their preparation and pharmaceutical compositions containing them” (LES LABORATOIRES SERVIER, priority 2013, dated 2017)
Structures can show the parent of a compound that is named as a salt.

Tests used:
Bcl-2 protein = Bcl-2 protein (histag-Bcl-2, UniProtKB P10415) (Homo sapiens (Human), UniProt P10415); assay: Inhibition of Bcl-2 by the fluorescence polarisation technique; type: binding; conditions: fluorescence polarisation test; method A, or method B where underlined (underlining not visible); read-out: IC50 (nM) Bcl-2 FP
Bcl-2 protein, sequence (P10415 whole entry): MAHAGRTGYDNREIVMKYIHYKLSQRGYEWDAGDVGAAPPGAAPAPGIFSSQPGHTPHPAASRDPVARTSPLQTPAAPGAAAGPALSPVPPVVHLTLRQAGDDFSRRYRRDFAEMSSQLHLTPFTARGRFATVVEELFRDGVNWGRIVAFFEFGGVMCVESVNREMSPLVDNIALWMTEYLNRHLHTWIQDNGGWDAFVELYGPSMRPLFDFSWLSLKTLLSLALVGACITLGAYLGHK
From the text: Inhibition of Bcl-2 by the fluorescence polarisation technique

[1] = test system: RS4;11 leukaemia tumour line; assay: In vitro cytotoxicity, Microculture Tetrazolium Assay (MTT); type: cell-based; conditions: Homo sapiens; RS4;11 cells, 48 hours exposure
Description: The cytotoxicity studies were carried out on the RS4;11 leukaemia tumour line.
The cells are distributed onto microplates and exposed to the test compounds for 48 hours. The cell viability is then quantified by a colorimetric assay, the Microculture Tetrazolium Assay (Cancer Res., 1987, 47, 939-942).

Structure (SMILES) | IC50 (Bcl-2 protein) [nM] | IC50 [1] [nM]
O=C(c1cn(-c2cc(Cl)ccc2C(=O)N2Cc3ccccc3C[C@H]2CN2CCCCC2)c2ccccc12)N(c1ccccc1)c1ccc(O)cc1 [Example 171, 1-{5-Chloro-2-[(3S)-3-(piperidin-1-ylmethyl)-1,2,3,4-tetrahydroisoquinoline-2-carbonyl}phenyl]-N-(4-hydroxyphenyl)-N-phenyl-1H-indole-3-carboxamide] | 71.8 | 1050
CN1CCN(C[C@@H]2Cc3ccccc3CN2C(=O)c2cc3c(cc2-n2cc(C(=O)N(c4ccc(O)cc4)c4cccc(Oc5ccccc5)c4)c4ccccc42)OCO3)CC1 [Example 39, N-(4-Hydroxyphenyl)-1-(6-{[(3S)-3-[(4-methylpiperazin-1-yl)methyl]-3,4-dihydroisoquinolin-2(1H)-yl]carbonyl}-1,3-benzodioxol-5-yl)-N-(3-phenoxyphenyl)-1H-indole-3-carboxamide hydrochloride] | 12.5 | 263
Cc1cc(C(=O)N(c2ccc(O)cc2)c2ccc(Cl)cc2)cn1-c1cc(Br)ccc1C(=O)N1Cc2ccccc2C[C@H]1CN1CCN(C)CC1 [Example 62, 1-(5-Bromo-2-{[(3S)-3-[(4-methylpiperazin-1-yl)methyl]-3,4-dihydroisoquinolin-2(1H)-yl]carbonyl}phenyl)-N-(4-chlorophenyl)-N-(4-hydroxyphenyl)-5-methyl-1H-pyrrole-3-carboxamide] | 7.5 | 205
COc1cc(-n2nc(C(=O)N(c3ccccc3)c3ccccc3)c3ccccc32)c(C(=O)N2Cc3ccccc3C[C@H]2CN)cc1N [Example 152, 1-{4-Amino-2-[(3S)-3-(aminomethyl)-1,2,3,4-tetrahydroisoquinoline-2-carbonyl]-5-methoxyphenyl}-N,N-diphenyl-1H-indazole-3-carboxamide] | 218 | 2160
CCCCN(C(=O)c1cn(-c2cc(OC)c(O)cc2C(=O)N2Cc3ccccc3C[C@H]2CN2CCN(C)CC2)c2ccccc12)c1ccc(O)cc1 [Example 203, N-Butyl-1-{4-hydroxy-5-methoxy-2-[(3S)-3-[(4-methylpiperazin-1-yl)methyl]-1,2,3,4-tetrahydroisoquinoline-2-carbonyl]phenyl}-N-(4-hydroxyphenyl)-1H-indole-3-carboxamide dihydrochloride] | 10 | 454
Cc1cc(C(=O)N(c2ccc(O)cc2)c2ccc3[nH]ccc3c2)cn1-c1cc(Br)ccc1C(=O)N1Cc2ccccc2C[C@H]1CN1CCN(C2CCC2)CC1 [Example 102, 1-(5-Bromo-2-{[(3S)-3-[(4-cyclobutylpiperazin-1-yl)methyl]-3,4-dihydroisoquinolin-2(1H)-yl]carbonyl}phenyl)-N-(4-hydroxyphenyl)-N-(1H-indol-5-yl)-5-methyl-1H-pyrrole-3-carboxamide] | 8.4 | 108
COc1cc(-n2cc(C(=O)N(c3ccc(O)cc3)C3CCCCC3)c3ccccc32)c(C(=O)N2Cc3ccccc3C[C@H]2CN2CCN(C)CC2)cc1O [Example 204, N-Cyclohexyl-1-{4-hydroxy-5-methoxy-2-[(3S)-3-[(4-methylpiperazin-1-yl)methyl]-1,2,3,4-tetrahydroisoquinoline-2-carbonyl]phenyl}-N-(4-hydroxyphenyl)-1H-indole-3-carboxamide dihydrochloride] | 4.7 | 780
CN1CCN(C[C@@H]2Cc3ccccc3CN2C(=O)c2ccc(Br)cc2-n2cc(C(=O)N(c3ccc(O)cc3)c3ccc(O)cc3)c3ccccc32)CC1 [Example 54, 1-(5-Bromo-2-{[(3S)-3-[(4-methylpiperazin-1-yl)methyl]-3,4-dihydroisoquinolin-2(1H)-yl]carbonyl}phenyl)-N,N-bis(4-hydroxyphenyl)-1H-indole-3-carboxamide] | 20 | 103
CN1CCN(C[C@@H]2Cc3ccccc3CN2C(=O)c2cc3c(cc2-n2cc(C(=O)N(c4ccc(O)c(Cl)c4)c4ccc5[nH]ccc5c4)c4ccccc42)OCO3)CC1 [Example 82, N-(3-Chloro-4-hydroxyphenyl)-N-(1H-indol-5-yl)-1-(6-{[(3S)-3-[(4-methylpiperazin-1-yl)methyl]-3,4-dihydroisoquinolin-2(1H)-yl]carbonyl}-1,3-benzodioxol-5-yl)-1H-indole-3-carboxamide hydrochloride] | 17.6 | 373
Cc1cc(C(=O)N(c2ccccc2)c2ccc(O)cc2)cn1-c1cc(Br)c(Br)cc1C(=O)N1Cc2ccccc2C[C@H]1CN1CCN(C)CC1 [Example 16, 1-(4,5-Dibromo-2-{[(3S)-3-[(4-methylpiperazin-1-yl)methyl]-3,4-dihydroisoquinolin-2(1H)-yl]carbonyl}phenyl)-N-(4-hydroxyphenyl)-5-methyl-N-phenyl-1H-pyrrole-3-carboxamide] | 29.6 | 656
Cc1cc(C(=O)N(c2ccccc2)c2ccc(O)c(Cl)c2)cn1-c1cc(Cl)ccc1C(=O)N1Cc2ccccc2C[C@H]1CN1CCN(C)CC1 [Example 27, N-(3-Chloro-4-hydroxyphenyl)-1-(5-chloro-2-{[(3S)-3-[(4-methylpiperazin-1-yl)methyl]-3,4-dihydroisoquinolin-2(1H)-yl]carbonyl}phenyl)-5-methyl-N-phenyl-1H-pyrrole-3-carboxamide hydrochloride] | 20.5 | 479
Cc1c(C(=O)N(c2ccc(O)cc2)c2cnc3c(ccn3C)c2)cn(-c2cc(Cl)ccc2C(=O)N2Cc3ccccc3C[C@H]2CN2CCOCC2)c1C [Example 209, 1-(5-Chloro-2-{[(3S)-3-(morpholin-4-ylmethyl)-3,4-dihydroisoquinolin-2(1H)-yl]carbonyl}phenyl)-N-(4-hydroxyphenyl)-4,5-dimethyl-N-(1-methyl-1H-pyrrolo[2,3-b]pyridin-5-yl)-1H-pyrrole-3-carboxamide hydrochloride] | 4.1 | 62.9
Cc1cc(C(=O)N(c2ccc(O)cc2)c2ccc3c(ccn3C)c2)cn1-c1cc(Cl)ccc1C(=O)N1Cc2ccccc2C[C@H]1CN1CCN(C)CC1 [Example 89, 1-(5-Chloro-2-{[(3S)-3-[(4-methylpiperazin-1-yl)methyl]-3,4-dihydroisoquinolin-2(1H)-yl]carbonyl}phenyl)-N-(4-hydroxyphenyl)-5-methyl-N-(1-methyl-1H-indol-5-yl)-1H-pyrrole-3-carboxamide] | 4.2 | 59.8
CN1CCN(C[C@@H]2Cc3ccccc3CN2C(=O)c2cc(NC(=O)CSc3ccccc3)ccc2-n2cc(C(=O)N(c3ccccc3)c3ccc(O)cc3)c3ccccc32)CC1 [Example 163, N-(4-Hydroxyphenyl)-1-{2-[(3S)-3-[(4-methylpiperazin-1-yl)methyl]-1,2,3,4-tetrahydroisoquinoline-2-carbonyl]-4-[2-(phenylsulphanyl)acetamido]phenyl}-N-phenyl-1H-indole-3-carboxamide] | 22.8 | 292
COc1ccc(C(=O)N2Cc3ccccc3C[C@H]2CN)c(-n2cc(C(=O)N(c3ccccc3)c3ccccc3)c3ccccc32)c1 [Example 147, 1-{2-[(3S)-3-(Aminomethyl)-1,2,3,4-tetrahydroisoquinoline-2-carbonyl]-5-methoxyphenyl}-N,N-diphenyl-1H-indole-3-carboxamide] | 22.5 | 966
Cc1cc(C(=O)N(c2ccc(O)cc2)c2ccc3c(ccn3C)c2)cn1-c1cc2c(cc1C(=O)N1Cc3ccccc3C[C@H]1CN1CCOCC1)CCO2 [Example 118, N-(4-Hydroxyphenyl)-5-methyl-N-(1-methyl-1H-indol-5-yl)-1-(5-{[(3S)-3-(morpholin-4-ylmethyl)-3,4-dihydroisoquinolin-2(1H)-yl]carbonyl}-2,3-dihydro-1-benzofuran-6-yl)-1H-pyrrole-3-carboxamide] | 5.9 | 114
CN1CCN(C[C@@H]2Cc3ccccc3CN2C(=O)c2ccc(Cl)cc2-n2cc(C(=O)N(c3ccccc3)c3ccccc3)c3ccccc32)CC1 [Example 178, 1-{5-Chloro-2-[(3S)-3-[(4-methylpiperazin-1-yl)methyl]-1,2,3,4-tetrahydroisoquinoline-2-carbonyl]phenyl}-N,N-diphenyl-1H-indole-3-carboxamide dihydrochloride] | 17.5 | 812
Cc1cc(C(=O)N(c2ccc(O)cc2)c2ccc3[nH]ccc3c2)cn1-c1cc(Cl)cc(Cl)c1C(=O)N1Cc2ccccc2C[C@H]1CN1CCN(C)CC1 [Example 92, 1-(3,5-Dichloro-2-{[(3S)-3-[(4-methylpiperazin-1-yl)methyl]-3,4-dihydroisoquinolin-2(1H)-yl]carbonyl}phenyl)-N-(4-hydroxyphenyl)-N-(1H-indol-5-yl)-5-methyl-1H-pyrrole-3-carboxamide] | 9.6 | 202
Cc1cc(C(=O)N(c2ccc(O)cc2)c2ccc3[nH]ccc3c2)cn1-c1cc(Br)ccc1C(=O)N1Cc2ccccc2C[C@H]1C(=O)N1CCN(C)CC1 [Example 101, 1-(5-Bromo-2-{[(3S)-3-[(4-methylpiperazin-1-yl)carbonyl]-3,4-dihydroisoquinolin-2(1H)-yl]carbonyl}phenyl)-N-(4-hydroxyphenyl)-N-(1H-indol-5-yl)-5-methyl-1H-pyrrole-3-carboxamide] | 99.1 | 1880
CN1CCN(C[C@@H]2Cc3ccccc3CN2C(=O)c2ccc(Br)cc2-n2cc(C(=O)N(c3ccc(O)cc3)c3ccc4[nH]ccc4c3)c3ccccc32)CC1 [Example 48, 1-(5-Bromo-2-{[(3S)-3-[(4-methylpiperazin-1-yl)methyl]-3,4-dihydroisoquinolin-2(1H)-yl]carbonyl}phenyl)-N-(4-hydroxyphenyl)-N-(1H-indol-5-yl)-1H-indole-3-carboxamide] | 10.5 | 93.9
